Laboratory results from article PMC3944389, “Differential Neuroprotective Effects of 5′-Deoxy-5′-Methylthioadenosine” (PLoS ONE, 2014).

Assays:
[1] = tested on: Wistar rats, global brain ischemia; experiment: Transient forebrain (global) ischemia (4VO), Fluoro-Jade C staining of CA1; type: in vivo, rat; conditions: 30 mg/kg i.p. from 30 min after onset of ischemia, 7 days reperfusion; untreated 180±10
Experimental: Male Wistar rats (270-300 g; Harlan) were subjected to transient focal ischemia for 90 min by producing right middle cerebral artery occlusion (MCAO) as described previously, followed by reperfusion for 3 days and MTA treatment (30 mg/kg, intraperitoneally –i.p.- twice daily) starting 30 min after the onset of ischemia (n = 5 in each experimental group). Cerebral blood flow was monitored transcranially with a laser Doppler flowmeter (Perimed) and the infarct volume was assessed by 2,3,5-triphenyltetrazolium chloride (TTC) staining. Transient forebrain ischemia was induced as described elsewhere, by occluding the vertebral and common carotid arteries (4VO) for 10 min, followed by reperfusion for 7 days and MTA treatment (as above) starting 30 min after the onset of ischemia (n = 5 in vehicle group; n = 6 in the […]). The effectiveness of the treatment was assessed by using fluoro-Jade C staining to measure the levels of degenerated neurons in the CA1 region of the hippocampal formation.
Fluoro-Jade C (Chemicon, Millipore) was used to visualize dying neurons in 10 µm frozen coronal sections pretreated for 15 min with 0.06% KMnO4. […] Cells were counted in the right and left hemispheres of each stained section, examining four sections from each experiment.

[2] = tested on: rat mixed astrocyte-neuron cultures; experiment: NMDA-induced caspase 3 activation in mixed astrocyte-neuron cultures; type: cell-based; conditions: pre- or co-treatment; MTA 250 µM, MK-801 10 µM; 300 µM NMDA
Experimental: (§1) Finally, to prepare neuron-astrocyte co-cultures, neurons were resuspended in B27 Neurobasal medium plus 10% of foetal bovine serum (FBS) and then seeded onto a monolayer of astrocytes in 24-well plates at a density of 1–2×10^5 cells per well, the astrocytes having been prepared beforehand, as described elsewhere. One day later, the medium was replaced with B27-Neurobasal plus 10% FBS medium, and the cells were maintained at 37°C in 5% CO2. The cultures were used 8–9 days after plating. Neurons and astrocytes were identified with antibodies against microtubule-associated protein-2 and GFAP, respectively.
To assay N-methyl–D-aspartate (NMDA) excitotoxicity, primary cultures were seeded in 24-well plates at 15×10^4 cells/well, cultured for 7 days in vitro, and treated for different times with the vehicle alone (dimethyl sulfoxide (DMSO) 1%), NMDA (300 µM), NMDA (300 µM) + MTA (250 µM) or NMDA (300 µM) + MK-801, a NMDA receptor antagonist (10 µM). […] Caspase 3 activity was measured in these lysates one hour after the NMDA addition.
Cortical neurons, or mixed cortical neurons and glia, were seeded in poly-L-lysine-coated 6-well culture plates during 7 days in vitro before start the set of experiments. […] The extracts were then centrifuged at 5,000×g for 10 min at 4°C and the protein content was determined by the BCA protein assay. […]

[3] = tested on: rat mixed cultures of neurons and astrocytes; experiment: Oxygen-glucose deprivation (OGD) with iodoacetate, LDH release; type: cell-based
Experimental: as §1
Ischemic damage was induced by incubating cell cultures for 1 h in a hyperbaric chamber in a nitrogen-saturated buffer containing: 130 mM NaCl, 5.4 mM KCl, 0.1323 mM CaCl2, 0.26 mM NaHCO3, 0.8 mM MgCl2, 1.18 mM NaH2PO4, 10 mM sucrose (OGD plus sucrose) and iodoacetate (IAA, 20 or 50 µM). IAA is a glycolytic blocker typically used in OGD experiments to simulate ischemic conditions. After the insult, the cells were incubated under normoxic conditions for an additional 24 h in the presence of glucose but in the absence of IAA. Distinct reagents were added during ischemia to evaluate their neuroprotective activity by assessing cell viability and cell death in the cultures.
The cell status was assessed by measuring the release of lactate dehydrogenase (LDH) from dead cells. LDH was measured spectrophotometrically at 490 nm on a 96-well plate reader using the Cytotox 96 Kit according to the manufacturer's instructions (Promega). The LDH release was defined by the ratio of LDH released to the total LDH present in the cell at the beginning of the treatment.

Substance: 5′-deoxy-5′-methylthioadenosine [MTA]
- Fluoro Jade C stained cells in the hippocampal CA1 region [1]: 110±20 cells/mm
- caspase 3 activation induced by NMDA [2]: reverted to basal levels
- protection against OGD (cell death, LDH release) ([3]; IAA 20 and 50 µM, MTA 10 µM or 100 µM, APV 100 µM): significant
- protection against OGD (cell death, LDH release) ([3]; supramaximal dose of MTA, 1 mM): neither protective nor did it lead to greater damage than OGD itself
